Here are results for 2 molecules from patent EP0672658B1, “Antithrombotic agents” (priority 1994, dated 1995).

Where a name gives a salt, the structure may show the parent alone.

Assay [1] is described as follows: Arterio-Venous shunt model. In kind it is in vivo, rats. Particulars: continuous intravenous infusion; for thrombus weight: both compounds to the same extent. As for the experimental part:
[…]. Blood circulated through the shunt for 15 minutes before the thread is carefully removed and weighed. The weight of a wet thread is subtracted from the total weight of the thread and thrombus (see J.R. Smith, Br. J. Pharmacol., 77,29 (1982)).

A short description of assay [2]: Coagulation parameters in plasma of treated rats (TT, APTT, prothrombin time). Particulars: for plasma thrombin time prolonged: during infusion reducing thrombus weight to approximately 20% of control in the Arterio-Venous shunt model. The assay is classed as in vivo, rat.
Experimental: Plasma thrombin time (TT) and activated partial thromboplastin time (APTT) are measured with a fibrometer. Blood is sampled from a jugular catheter and collected in syringe containing sodium citrate (3.8%, 1 part to 9 parts blood). To measure TT, rat plasma (0.1 mL) is mixed with saline (0.1 mL) and bovine thrombin (0.1 mL, 30 U/mL in TRIS buffer; Parke Davis) at 37 °C. For APTT, plasma (0.1 mL) and APTT solution (0.1 mL, Organon Teknika) are incubated for 5 minutes (37 °C) and CaCl2 (0.01 mL, 0.025 M) is added to start coagulation. Assays are done in duplicate and averaged.
The next assay addresses Human Thrombin (Homo sapiens, UniProt P00734). The experiment in a line: biochemical. Particulars: read-out: Kass Human Thrombin (converted).
The next assay concerns the target factor Xa (Homo sapiens, UniProt P00742). The experiment in a line: biochemical. Particulars: read-out: Kass Xa (converted). Summed up: (§1)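 Bovine trypsin and human factor Xa amidase activity measured chromogenically, following the human thrombin procedure. Substrates: N-Benzoyl-Ile-Glu-Gly-Arg-p-nitroanilide for factor Xa and N-Benzoyl-Phe-Val-Arg-p-nitroanilide for trypsin. Used for selectivity profiling.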

The target in another assay is T1, Trypsin (Bos taurus, UniProt P00760).
T1 sequence (P00760 24-246): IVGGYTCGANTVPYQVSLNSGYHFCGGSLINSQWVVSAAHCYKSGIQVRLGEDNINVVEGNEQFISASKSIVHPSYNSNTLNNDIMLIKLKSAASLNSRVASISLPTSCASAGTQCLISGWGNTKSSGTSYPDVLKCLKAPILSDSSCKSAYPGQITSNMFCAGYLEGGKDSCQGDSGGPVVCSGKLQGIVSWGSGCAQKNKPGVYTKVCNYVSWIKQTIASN
In words: biochemical. Particulars: read-out: Kass Trypsin (converted). Further details: species or system Bovine. The method in brief: as §1

The target of another assay is T2, Plasmin (Homo sapiens, UniProt P00747).
T2 construct: Human plasmin is purchased; purchased Boehringer Mannheim, Indianapolis, Indiana
T2 sequence (P00747 581-810 limits assumed): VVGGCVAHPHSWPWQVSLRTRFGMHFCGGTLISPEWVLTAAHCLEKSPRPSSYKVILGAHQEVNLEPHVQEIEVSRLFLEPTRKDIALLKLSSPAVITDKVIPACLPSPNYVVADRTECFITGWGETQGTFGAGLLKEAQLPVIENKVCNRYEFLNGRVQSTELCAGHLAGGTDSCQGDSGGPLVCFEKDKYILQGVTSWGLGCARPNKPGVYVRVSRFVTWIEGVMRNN
T2 sequence (P00747 97-580 partner limits assumed): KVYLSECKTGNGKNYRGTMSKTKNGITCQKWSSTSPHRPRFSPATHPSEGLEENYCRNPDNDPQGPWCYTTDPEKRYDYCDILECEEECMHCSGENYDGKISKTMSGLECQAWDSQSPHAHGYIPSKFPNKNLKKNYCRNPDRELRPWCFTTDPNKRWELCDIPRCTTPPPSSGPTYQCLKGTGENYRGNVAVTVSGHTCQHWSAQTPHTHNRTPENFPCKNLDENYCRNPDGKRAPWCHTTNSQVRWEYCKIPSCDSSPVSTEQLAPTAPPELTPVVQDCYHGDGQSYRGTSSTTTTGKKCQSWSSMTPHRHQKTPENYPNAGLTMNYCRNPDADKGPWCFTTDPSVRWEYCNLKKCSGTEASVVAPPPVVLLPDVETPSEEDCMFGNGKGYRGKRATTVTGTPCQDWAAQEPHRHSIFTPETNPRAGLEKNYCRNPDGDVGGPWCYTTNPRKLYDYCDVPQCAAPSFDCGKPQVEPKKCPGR
The experiment in a line: biochemical. Particulars: read-out: Kass Plasmin (converted). Summed up:
(§2)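 Amidase activity of human plasmin and t-PA (nt-PA single-chain; mt-PA6) was measured by a chromogenic method adapted from a thrombin assay. Substrates were H-D-Val-Leu-Lys-p-nitroanilide for plasmin and H-D-Ile-Pro-Arg-p-nitroanilide for t-PA.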

Another assay has as its target t-PA (Homo sapiens, UniProt P00750). In words: biochemical. Particulars: read-out: Kass t-PA (converted). Summed up:
as §2

For assay [3], the system named is human or animal plasma. The experiment in a line: Anticoagulation determination in plasma: thrombin time (TT). The assay is classed as biochemical. Particulars: concentration doubling thrombin time. The method in brief: (§3)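 Compounds spiked over a concentration range into citrated human, dog or rat plasma. PT used Thromboplastin-C; APTT used Actin reagent 120 s then 0.02 M CaCl2; TT used bovine thrombin 10 NIH units/mL. Concentration doubling clotting time estimated by linear extrapolation.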

Assay [4] concerns human or animal plasma. In words: Anticoagulation determination in plasma: activated partial thromboplastin time (APTT). The assay is classed as biochemical. Particulars: concentration doubling activated partial thromboplastin time. The method in brief:
as §3

Assay [5] relates to human or animal plasma. In words: Anticoagulation determination in plasma: prothrombin time (PT). The assay is classed as biochemical. Particulars: concentration doubling prothrombin time. Summed up:
as §3

The mark [6] stands for this setting: during infusion in the Arterio-Venous shunt model.

t-PA, sequence (P00750 36-562): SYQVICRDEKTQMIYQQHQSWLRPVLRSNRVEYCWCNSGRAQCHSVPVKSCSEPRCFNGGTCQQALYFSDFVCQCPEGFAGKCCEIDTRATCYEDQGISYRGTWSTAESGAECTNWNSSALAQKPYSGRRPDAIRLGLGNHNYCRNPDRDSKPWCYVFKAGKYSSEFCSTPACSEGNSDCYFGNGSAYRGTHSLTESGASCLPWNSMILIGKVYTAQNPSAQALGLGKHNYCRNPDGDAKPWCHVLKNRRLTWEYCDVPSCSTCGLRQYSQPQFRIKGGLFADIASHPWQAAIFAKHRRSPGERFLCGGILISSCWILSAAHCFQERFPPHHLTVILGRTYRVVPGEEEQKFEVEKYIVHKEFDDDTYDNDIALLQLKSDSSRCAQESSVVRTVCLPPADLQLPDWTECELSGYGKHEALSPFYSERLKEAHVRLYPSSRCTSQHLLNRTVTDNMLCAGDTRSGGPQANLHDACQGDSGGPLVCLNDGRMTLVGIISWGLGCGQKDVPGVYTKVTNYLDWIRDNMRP
factor Xa, sequence (P00742 235-488 limits assumed): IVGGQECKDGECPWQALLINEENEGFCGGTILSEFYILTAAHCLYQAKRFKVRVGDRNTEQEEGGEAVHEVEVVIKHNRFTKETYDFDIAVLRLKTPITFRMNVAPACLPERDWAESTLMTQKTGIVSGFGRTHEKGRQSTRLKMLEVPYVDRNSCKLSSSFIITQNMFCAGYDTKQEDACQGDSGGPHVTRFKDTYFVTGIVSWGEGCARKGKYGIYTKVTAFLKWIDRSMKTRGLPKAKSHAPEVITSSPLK
factor Xa, sequence (P00742 41-179 partner limits assumed): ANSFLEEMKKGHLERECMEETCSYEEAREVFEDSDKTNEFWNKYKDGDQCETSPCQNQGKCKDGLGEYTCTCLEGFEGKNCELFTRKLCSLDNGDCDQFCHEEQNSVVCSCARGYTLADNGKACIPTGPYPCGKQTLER

For `CN[C@H](Cc1ccccc1)C(=O)N1CCC[C@H]1C(=O)N[C@H](C=O)CCCNC(=N)N` [D-MePhe-Pro-Arg-H, reference compound], the thrombus weight entry in assay [1] is reported as “approximately 20 % of control”. The “plasma thrombin time prolonged” value in [2] is “greater than 20 fold”.
Consider `N=C(N)c1ccc(CNC(=O)[C@@H]2CCCN2C(=O)[C@@H](CC2CCCCC2)NCC(=O)O)cc1` [Example 48, HOOCCH2-D-Cha-Pro-p-NHCH2C6H4C(NH)NH2·HCl], for which the Kd on Human Thrombin was 0.244 nM; at factor Xa, 182 nM; at Trypsin, 4 nM; at Plasmin, 2330 nM; at t-PA, 20000 nM. In the assay on human or animal plasma [3], the “Human Plasma Anticoagulation 2x Clotting time (ng/mL) TT” value was found to be 2. ng/mL. The “Human Plasma Anticoagulation 2x Clotting time (ng/mL) APTT” value with human or animal plasma [4] amounted to 33 ng/mL. Also, in the assay with human or animal plasma [5], the “Human Plasma Anticoagulation 2x Clotting time (ng/mL) PT” value was 59 ng/mL. Also, in assay [1], the thrombus weight entry is “approximately 20 % of control”. Also, the “antithrombotic potency compared with D-MePhe-Pro-Arg-H” value in [1] (greater than D-MePhe-Pro-Arg-H) is 9 fold. For the same molecule, the APTT extended entry in [2] (setting [6]) was “about 120 % of control”. Also, the Prothrombin time extended result in [2] (setting [6]) is given as “about 120 % of control”. Also, the “plasma thrombin time prolonged” value in [2] was “about 3 fold”.
